Data: patent publication US10196403B2, “Compounds and compositions and uses thereof” (Sunovion Pharmaceuticals Inc., priority 2016, dated 2019)

Test system: mice
Assay: Neuropharmacological Assay (SmartCube)
Type: in vivo
Conditions: for minimal effective dose: Mus musculus, read-out: POTENCY (minimal effective dose, MED); for minimal effective dose / POTENCY (minimal effective dose, MED): MED = dose having 50% or more total activity in SmartCube; for AD: ADHD (SmartCube probability) / AG: analgesic (SmartCube probability) / AX: anxiolytic (SmartCube probability) / CE: cognitive enhancer (SmartCube probability) / DP: anti-depressant (SmartCube probability) / MS: mood stabilizer (SmartCube probability) / PS: anti-psychotic (SmartCube probability) / SD: sedative hypnotic (SmartCube probability) / UN: uncharacterized CNS activity (SmartCube probability): mice, i.p. 15 min before test, most efficacious dose(s) of 3 doses
How it was run: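 Behavior of treated mice captured by digital video and matched algorithmically against reference drug classes, yielding a class probability at the most efficacious of 3 i.p. doses (15 min pretreatment, NMP/PEG/propylene glycol vehicle). Potency given as MED, the mpk dose reaching ≥50% total activity across usually 0.3–30 mpk.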

SMILES	minimal effective dose	AD: ADHD (SmartCube probability)	AG: analgesic (SmartCube probability)	AX: anxiolytic (SmartCube probability)	CE: cognitive enhancer (SmartCube probability)	DP: anti-depressant (SmartCube probability)	MS: mood stabilizer (SmartCube probability)	PS: anti-psychotic (SmartCube probability)	SD: sedative hypnotic (SmartCube probability)	UN: uncharacterized CNS activity (SmartCube probability)	POTENCY (minimal effective dose, MED)
CNC[C@H]1OCCc2c(C)cccc21 [Example 38, (S)-N-methyl-1-(5-methylisochroman-1-yl)methanamine]	< 3 mg/kg	+ (LOQ≤ + <5%)	++ (5%≤ ++ <25%)	++ (5%≤ ++ <25%)	+ (LOQ≤ + <5%)	++ (5%≤ ++ <25%)	+ (LOQ≤ + <5%)	++ (5%≤ ++ <25%)	++ (5%≤ ++ <25%)	+++ (25%≤ +++ <50%)	–
CNC[C@@H]1OCCc2c(C)cccc21 [Example 39, (R)-N-methyl-1-(5-methylisochroman-1-yl)methanamine]	< 3 mg/kg	+ (LOQ≤ + <5%)	++ (5%≤ ++ <25%)	++ (5%≤ ++ <25%)	++ (5%≤ ++ <25%)	++++ (50%≤ ++++)	+ (LOQ≤ + <5%)	++ (5%≤ ++ <25%)	+ (LOQ≤ + <5%)	+++ (25%≤ +++ <50%)	–
CNC[C@H]1OCCc2cccc(C)c21 [Example 40, (S)-N-methyl-1-(8-methylisochroman-1-yl)methanamine]	< 3 mg/kg	+ (LOQ≤ + <5%)	+ (LOQ≤ + <5%)	+++ (25%≤ +++ <50%)	+ (LOQ≤ + <5%)	++ (5%≤ ++ <25%)	+ (LOQ≤ + <5%)	++ (5%≤ ++ <25%)	++ (5%≤ ++ <25%)	+++ (25%≤ +++ <50%)	–
CNC[C@@H]1OCCc2cccc(C)c21 [Example 41, (R)-N-methyl-1-(8-methylisochroman-1-yl)methanamine]	< 3 mg/kg	+ (LOQ≤ + <5%)	++ (5%≤ ++ <25%)	++ (5%≤ ++ <25%)	+ (LOQ≤ + <5%)	++ (5%≤ ++ <25%)	+ (LOQ≤ + <5%)	++++ (50%≤ ++++)	++ (5%≤ ++ <25%)	++++ (50%≤ ++++)	–
CNC[C@H]1OCCc2cccc(C#N)c21 [Example 44, (S)-1-((methylamino)methyl)isochromane-8-carbonitrile]	3 to 10 mg/kg	+ (LOQ≤ + <5%)	++ (5%≤ ++ <25%)	++ (5%≤ ++ <25%)	++ (5%≤ ++ <25%)	+ (LOQ≤ + <5%)	+ (LOQ≤ + <5%)	++ (5%≤ ++ <25%)	+ (LOQ≤ + <5%)	+++ (25%≤ +++ <50%)	–
CNC[C@@H]1OCCc2cccc(C#N)c21 [Example 45, (R)-1-((methylamino)methyl)isochromane-8-carbonitrile]	3 to 10 mg/kg	+ (LOQ≤ + <5%)	++ (5%≤ ++ <25%)	++ (5%≤ ++ <25%)	++ (5%≤ ++ <25%)	+ (LOQ≤ + <5%)	+ (LOQ≤ + <5%)	++ (5%≤ ++ <25%)	+ (LOQ≤ + <5%)	++++ (50%≤ ++++)	–
CNC[C@H]1OCCc2c(C#N)cccc21 [Example 46, (S)-1-((methylamino)methyl)isochromane-5-carbonitrile]	3 to 10 mg/kg	+ (LOQ≤ + <5%)	+ (LOQ≤ + <5%)	++ (5%≤ ++ <25%)	++ (5%≤ ++ <25%)	++ (5%≤ ++ <25%)	+ (LOQ≤ + <5%)	++ (5%≤ ++ <25%)	++ (5%≤ ++ <25%)	+++ (25%≤ +++ <50%)	–
CNC[C@@H]1OCCc2c(C#N)cccc21 [Example 47, (R)-1-((methylamino)methyl)isochromane-5-carbonitrile]	3 to 10 mg/kg	+ (LOQ≤ + <5%)	+ (LOQ≤ + <5%)	++ (5%≤ ++ <25%)	+ (LOQ≤ + <5%)	++++ (50%≤ ++++)	+ (LOQ≤ + <5%)	++ (5%≤ ++ <25%)	++ (5%≤ ++ <25%)	++ (5%≤ ++ <25%)	–
CC(N)C1OCCc2ccc3c(c21)OCO3 (stereo not drawn) [Example 55]	–	+ (LOQ≤ + <5%)	++ (5%≤ ++ <25%)	++ (5%≤ ++ <25%)	+ (LOQ≤ + <5%)	++ (5%≤ ++ <25%)	+ (LOQ≤ + <5%)	+ (LOQ≤ + <5%)	+ (LOQ≤ + <5%)	++++ (50%≤ ++++)	C (>10 to ≤30 mpk)
CNC(C)C1OCCc2ccc3c(c21)OCO3 (stereo not drawn) [Example 57]	–	+ (LOQ≤ + <5%)	++ (5%≤ ++ <25%)	++ (5%≤ ++ <25%)	++ (5%≤ ++ <25%)	+ (LOQ≤ + <5%)	+ (LOQ≤ + <5%)	+ (LOQ≤ + <5%)	+ (LOQ≤ + <5%)	+++ (25%≤ +++ <50%)	D (>30 mpk)
CNC[C@H]1OCCCc2cccc(F)c21 [Example 60, (S)-1-(9-fluoro-1,3,4,5-tetrahydrobenzo[c]oxepin-1-yl)-N-methylmethanamine]	3 to 10 mg/kg	+ (LOQ≤ + <5%)	+ (LOQ≤ + <5%)	++ (5%≤ ++ <25%)	+ (LOQ≤ + <5%)	++ (5%≤ ++ <25%)	+ (LOQ≤ + <5%)	++ (5%≤ ++ <25%)	++++ (50%≤ ++++)	+++ (25%≤ +++ <50%)	–
CNC[C@@H]1OCCCc2cccc(F)c21 [Example 61, (R)-1-(9-fluoro-1,3,4,5-tetrahydrobenzo[c]oxepin-1-yl)-N-methylmethanamine]	3 to 10 mg/kg	+ (LOQ≤ + <5%)	+ (LOQ≤ + <5%)	++ (5%≤ ++ <25%)	+ (LOQ≤ + <5%)	+ (LOQ≤ + <5%)	+ (LOQ≤ + <5%)	++++ (50%≤ ++++)	+ (LOQ≤ + <5%)	+++ (25%≤ +++ <50%)	–
CNC[C@H]1OCCc2c(OC)cccc21 [Example 62, (S)-1-(5-methoxyisochroman-1-yl)-N-methylmethanamine]	10 to 30 mg/kg	+ (LOQ≤ + <5%)	++ (5%≤ ++ <25%)	++++ (50%≤ ++++)	+ (LOQ≤ + <5%)	+ (LOQ≤ + <5%)	+ (LOQ≤ + <5%)	+ (LOQ≤ + <5%)	+ (LOQ≤ + <5%)	++ (5%≤ ++ <25%)	–
CNC[C@@H]1OCCc2c(OC)cccc21 [Example 63, (R)-1-(5-methoxyisochroman-1-yl)-N-methylmethanamine]	–	++ (5%≤ ++ <25%)	+ (LOQ≤ + <5%)	++ (5%≤ ++ <25%)	+ (LOQ≤ + <5%)	++++ (50%≤ ++++)	+ (LOQ≤ + <5%)	+ (LOQ≤ + <5%)	++ (5%≤ ++ <25%)	++++ (50%≤ ++++)	A-B
CNC[C@H]1OCCc2ccc(Cl)cc21 [Example 64, (S)-1-(7-chloroisochroman-1-yl)-N-methylmethanamine]	–	+ (LOQ≤ + <5%)	++ (5%≤ ++ <25%)	+++ (25%≤ +++ <50%)	++ (5%≤ ++ <25%)	+ (LOQ≤ + <5%)	+ (LOQ≤ + <5%)	++ (5%≤ ++ <25%)	++ (5%≤ ++ <25%)	++++ (50%≤ ++++)	A-B
